Several values for one entry are separate records, joined by “and”; a condition that tells them apart may be missing. Equal entries are not always repeated. Where two headings read alike, the source gives them in different places. Marks after values point to notes of the source that are not given here.
How the values were obtained:
[1] = molecular target: T1, recombinant human cPLA2α (Homo sapiens, UniProt P47712); assay: radioactivity-based mixed micelle assay, cPLA2α; type: biochemical; conditions: for cPLA2 % inhibition at 0.091 mole fraction, average: average of triplicates; for cPLA2α XI(50): XI(50) ± stdev, mole fraction of inhibitor in total substrate interface for 50% inhibition; for times more potent than GK470: cPLA2α XI(50) relative to GK470; for cPLA2α inhibition, Xi50 dose-response: replicates
T1 sequence (P47712 1-749): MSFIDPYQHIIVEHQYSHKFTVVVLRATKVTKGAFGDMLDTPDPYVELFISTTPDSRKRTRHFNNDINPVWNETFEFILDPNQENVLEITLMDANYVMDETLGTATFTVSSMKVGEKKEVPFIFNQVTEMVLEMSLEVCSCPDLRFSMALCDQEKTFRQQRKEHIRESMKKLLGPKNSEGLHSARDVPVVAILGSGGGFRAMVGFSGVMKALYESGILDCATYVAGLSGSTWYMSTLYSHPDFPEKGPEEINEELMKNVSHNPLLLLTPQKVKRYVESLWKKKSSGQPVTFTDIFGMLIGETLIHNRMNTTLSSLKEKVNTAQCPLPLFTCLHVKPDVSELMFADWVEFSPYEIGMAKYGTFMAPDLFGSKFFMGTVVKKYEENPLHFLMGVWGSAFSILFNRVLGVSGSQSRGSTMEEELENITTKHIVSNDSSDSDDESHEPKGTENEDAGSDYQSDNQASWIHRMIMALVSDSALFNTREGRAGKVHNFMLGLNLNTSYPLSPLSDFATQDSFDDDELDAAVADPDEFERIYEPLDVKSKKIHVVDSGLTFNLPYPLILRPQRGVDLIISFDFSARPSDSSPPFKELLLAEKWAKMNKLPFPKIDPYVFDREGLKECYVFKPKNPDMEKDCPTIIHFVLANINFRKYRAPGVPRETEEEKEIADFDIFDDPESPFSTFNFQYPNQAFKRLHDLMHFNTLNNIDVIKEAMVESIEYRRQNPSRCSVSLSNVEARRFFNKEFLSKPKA
Procedure: All synthesized thiazolyl ketones were tested for their in vitro inhibitory activity on recombinant human cPLA2α and selectivity over human calcium-independent GVIA iPLA2 and secreted GV sPLA2 using our previously described group-specific radioactivity-based mixed micelle assays. The inhibition results are presented either as per cent inhibition or as XI(50) values in Table 1. […] The XI(50) is defined as the mole fraction of the inhibitor in the total substrate interface required to inhibit the enzyme activity by 50%. For comparison purposes, previously published data for the inhibitor GK470[19] are included. […] Inhibitors were initially screened at 0.091 mol fraction (5 μL of 5 mM inhibitor in DMSO) in substrate (495 μL) in technical triplicates. […] The XI(50) value and stdev values reported are for the entire curve. This analysis was performed in GraphPad Prism v6.

[2] = stability in human plasma (LC-MS/MS); type: in vitro ADME; conditions: for Stability in human plasma 4 h: % of the compound remaining after 4 h; for plasma stability 4h (%) / plasma stability 25h (%) / plasma stability 20h (%) / plasma stability 24h39min (%): individual sample, human plasma
Procedure: The stability of the analogs in human plasma was studied over approximately 24 h by LC-MS/MS and the results at 4 h and the final timepoint (20–25 h) are included in Table 1.
The metabolic stability of the compounds was determined through in vitro stability assays in human plasma. Solutions of compounds in DMSO (20 mM) were diluted to 5 μg/mL in 50% methanol for infusion into the MS/MS system and spiking of calibration standards and control samples. For the MS detection, positive ionization in ESI mode was used. Good sensitivity, retention and peak shaped were achieved using a gradient with 5 mM ammonium carbamate in water and ammonium carbamate in 90% acetonitrile on a reversed phase column (ACE3AQ). Calibration standards were spiked in a calibration range of 0.5–100 ng/ml. Control samples were spiked at, low, medium, and high concentration levels. The spiked plasma samples were prepared by protein precipitation using acetonitrile containing appropriate internal standard (IS). […] Samples were prepared for analysis by taking 50 μL of plasma sample and adding 100 μL of IS working solution in acetonitrile followed by vortexing at 2500 rpm (Multi-tube vortexer DVX-2500, Henry Troemner LLC, USA) for 2 min. The samples were centrifuged at 5300 rpm (Heraeus Megafuge 1.0 Heraeus, Germany) for 3 min and the supernatant transferred to the autosampler. Recovery was determined by comparing the prepared matrix samples (protein precipitation) with a direct sample (analytes spikes in 67% acetonitrile = injection solution) such that the recovery of the sample preparation and the matrix effects were determined together. Two or three samples were each measured in technical triplicates to give the final % recovery.

[3] = 0.091 mole fraction, read-out: cPLA2α % Inhib
[4] = individual technical replicate, read-out: cPLA2 % inhibition at 0.091 mole fraction
[5] = % of the compound remaining after 25 h (¤)
[6] = % of the compound remaining after 20 h
[7] = % of the compound remaining after 24 h 39 min (*)

Row | Compound | inhibition at 0.091 mole fraction [1, 3] [%] | cPLA2 % inhibition at 0.091 mole fraction, average [1] [%] | inhibition at 0.091 mole fraction [1, 4] [%] | Stability in human plasma 4 h [2] [%] | Stability in human plasma 20+ h [2, 5] | plasma stability 4h (%) [2] | plasma stability 25h (%) [2] | Stability in human plasma 20+ h [2, 6] [%] | plasma stability 20h (%) [2] | times more potent than GK470 [1] | cPLA2α inhibition, Xi50 dose-response ([1]; Log [inhibitor] (mole%) -4.30) | cPLA2α inhibition, Xi50 dose-response ([1]; Log [inhibitor] (mole%) -3.00) | Stability in human plasma 20+ h [2, 7] | plasma stability 24h39min (%) [2] | cPLA2α inhibition, Xi50 dose-response ([1]; Log [inhibitor] (mole%) -1.00) | cPLA2α inhibition, Xi50 dose-response ([1]; Log [inhibitor] (mole%) -1.22) | cPLA2α XI(50) [1]
1 | CCCCCCCCc1ccc(OCC(=O)c2nc(C(=O)OCC)cs2)cc1 [GK401] | 89 | 88.7 | 88.4 | 69.3 | 16.25¤ % | 65.9% and 74% and 67.2% | 16.8% and 15.7% |  |  |  |  |  |  |  |  |  | 
2 | CCCCCCCCc1ccc(OC(C)C(=O)c2nc(C(=O)OC)cs2)cc1 (stereo not drawn) [GK402] | 79 | 79.2 | 81 | 79.7 | 47.3¤ % | 79.3% and 79.5% and 80.3% | 47% and 46% and 48.8% |  |  |  |  |  |  |  |  |  | 
3 | CCCCCCOc1ccc(SCC(=O)c2nc(C(=O)OC)cs2)cc1 [GK419] | 50 |  | 54 | 82 |  | 82.6% and 81.4% |  | 52.7 | 53.1% and 52.3% |  |  |  |  |  |  |  | 
4 | CCCCCCCOc1ccc(OCC(=O)c2nc(C(=O)OC)cs2)cc1 [GK420] | 98 |  | 97.2 | 63.3 |  | 64.7% and 61.9% |  | 18.05 | 19.1% and 17% | 7–11 |  |  |  |  |  |  | 0.0016 mole fraction and 0.0016 ± 0.0002 mole fraction
5 | CCCCCCSc1ccc(OCC(=O)c2nc(C(=O)OC)cs2)cc1 [GK427] | 98 |  | 98.4 | 61.3 |  | 59% and 63.5% |  | 8.05 | 0% and 16.1% | 7–11 | 14.10 |  |  |  |  |  | 0.0010 mole fraction and 0.0010 ± 0.0001 mole fraction
6 | CCCCCCSc1ccc(OC(C)C(=O)c2nc(C(=O)OC)cs2)cc1 (stereo not drawn) [GK449] | 98 | 97.5 | 96.2 | 63 |  | 58.4% and 67.6% |  |  |  | 7–11 |  |  | 18.35* % | 16.1% and 20.6% |  |  | 0.0017 mole fraction and 0.0017 ± 0.0005 mole fraction
7 | CCCCCCCCc1ccc(OCC(=O)c2nc(C(=O)OC)cs2)cc1 [GK470] |  |  |  | 60.6 |  | 58.2% and 63% and 60.5% | 10.5% and 10.6% |  |  |  |  |  |  |  |  |  | 

Second part, led by results:

Row | inhibition at 0.091 mole fraction [1, 3] [%] | cPLA2 % inhibition at 0.091 mole fraction, average [1] [%] | inhibition at 0.091 mole fraction [1, 4] [%] | Stability in human plasma 4 h [2] [%] | Stability in human plasma 20+ h [2, 5] | plasma stability 4h (%) [2] | plasma stability 25h (%) [2] | Stability in human plasma 20+ h [2, 6] [%] | plasma stability 20h (%) [2] | times more potent than GK470 [1] | cPLA2α inhibition, Xi50 dose-response ([1]; Log [inhibitor] (mole%) -4.30) | cPLA2α inhibition, Xi50 dose-response ([1]; Log [inhibitor] (mole%) -3.00) | Stability in human plasma 20+ h [2, 7] | plasma stability 24h39min (%) [2] | cPLA2α inhibition, Xi50 dose-response ([1]; Log [inhibitor] (mole%) -1.00) | cPLA2α inhibition, Xi50 dose-response ([1]; Log [inhibitor] (mole%) -1.22) | Compound | cPLA2α XI(50) [1]
8 | 95 | 95.4 | 95.1 | 21.5 |  | 32.3% and 10.6% |  |  |  |  |  |  |  |  |  |  | COC(=O)c1csc(C(=O)COc2ccc(Oc3ccccc3)cc2)n1 [GK403] | 0.0014 mole fraction and 0.0014 ± 0.0001 mole fraction
9 | 94 |  | 94.2 | 35.9 |  | 36.5% and 35.3% |  | 1.65 | 2.1% and 1.2% |  |  |  |  |  |  |  | COC(=O)c1csc(C(=O)C(C)Oc2ccc(Oc3ccccc3)cc2)n1 (stereo not drawn) [GK428] | 0.0038 mole fraction and 0.0038 ± 0.0001 mole fraction
10 | 97 | 96.6 | 96 | 59.9 |  | 55.1% and 64.7% |  |  |  |  |  | 33.0 | 12.8* % | 10.7% and 14.8% |  |  | CCCCCCCOc1ccc(OC(C)C(=O)c2nc(C(=O)OC)cs2)cc1 (stereo not drawn) [GK439] | 0.0029 mole fraction and 0.0029 ± 0.0004 mole fraction
11 | 100 | 100.3 | 99.5 | 21.3 |  | 20.1% and 22.4% |  |  |  |  |  |  | 0.9* % | 0.5% and 1.3% | 102.2 | 99.7 | COC(=O)c1csc(C(=O)COc2ccc(Oc3ccc(F)cc3)cc2)n1 [GK440] | 0.0010 mole fraction and 0.0010 ± 0.0001 mole fraction
